Laboratory results reported in patent publication US20260015322A1, “DELIVERY OF THERAPEUTIC ALKALOID COMPOUNDS” (priority 2022, published 2026).
Like-named read-outs stand apart in the source and are kept apart here.

What was measured:
[1] = Plasma Stability Assay (Example A3), human plasma; format: in vitro ADME; settings: 10 μM, 37° C., prodrug remaining
Source text: (§1) The data is represented in the table below.

[2] = Plasma Stability Assay (Example A3), rat plasma; format: in vitro ADME; settings: 10 μM, 37° C., prodrug remaining
Source text: as §1

[3] = Hydrolysis Assay - Condition 2 (DI Water); format: physicochemical; settings: 25° C., 0.5 mM
Experimental: 50 uL of compound (10 mM) in DMSO was diluted into 950 uL of DI water to a final concentration of 0.5 mM. The hydrolysis kinetics were conducted at 25° C. and measured by LCMS at a certain time interval.
(§2) The corresponding LCMS chromatogram were recorded and the conversions were calculated by integration of each peak.
(§3) • 1) LCMS spectra were obtained using Agilent 1200G1956A or SHIMADZU LCMS-2020. • Standard LCMS conditions were as follows (running time 1.55 minutes): • Acidic condition: Mobile Phase A: 0.0375% TFA in water (v/v). Mobile Phase B: 0.01875% TFA in acetonitrile (v/v); Column: Kinetex EVO C18 30*2.1 mm, 5 μm. • Basic condition: Mobile Phase A: 0.025% NH3·H2O in water (v/v). Mobile Phase B: Acetonitrile; Column: Kinetex EVO C18 2.1×30 mm, 5 μm. • 2) Conversion (%)=peak area 1/(peak area 1+peak area 2)*100%, peak area 1 is the integration of hydrolyzed product, peak area 2 is the integration of starting material.

[4] = Hydrolysis Assay - Condition 1 (SGF); format: physicochemical; settings: Condition 1: SGF with pepsin pH 1.5, 37° C., 0.5 mM
Experimental: 50 uL of compound (10 mM) in DMSO was diluted into 950 uL of Simulated Gastric Fluid (SGF) with pepsin (pH 1.5) to a final concentration of 0.5 mM. The hydrolysis kinetics were conducted at 37° C. and measured by LCMS at a certain time interval.
as §2, §3

[5] = Plasma Stability Assay (Example A2), human plasma; format: in vitro ADME; settings: 37° C., prodrug remaining
Experimental: (§4) Each test was carried out in duplicate for each time point; 0 min, 15 min, 30 min, 60 min, 120, 240 min. […]

[6] = Metabolic Stability in Human Hepatocytes; format: in vitro ADME; settings: cryopreserved human hepatocytes, 5×10^5 viable cells/mL, 37° C.
Experimental: A 2.5 uL aliquot of 100 μM test compound was incubated with 247.5 uL of cryopreserved hepatocytes suspended in serum-free incubation medium at 5×10^5 viable cells/mL. The mixture was incubated at 37° C. and shaken at 500 rpm for the designated time points (0.5, 15, 30, 60, 90, or 120 min). At each time point, 25 μL aliquot of incubation mixture was transferred to 125 μL of cold acetonitrile containing internal standard, followed by centrifugation for 30 min at 3,220 g. 100 μL of supernatant was mixed with 100 μL of distilled water for analysis by LC-MS/MS. Peak areas were determined from extracted ion chromatograms and in vitro half-life (t1/2) was determined from the concentration vs time regression slope, in vitro t1/2=0.693/k. Conversion of the in vitro t1/2 (in min) into the in vitro intrinsic clearance (in vitro CLint, in μL/min/10^6 cells) is done using: in vitro CLint=kV/N.

[7] = Plasma Stability Assay (Example A2), mouse plasma; format: in vitro ADME; settings: Mouse Plasma, 37° C., prodrug remaining
Experimental: as §4

in vivo = format: in vivo, male C57BL/6 mice; settings: 321 IV 2 mg/kg, mice
Experimental: Total fifteen male mice were used in this study with n=3 mice/time point with sparse sampling study design. Animals were administered through intravenous route with solution formulation of 321 at 2 mg/kg dose.
The extraction procedure for plasma/brain samples and the spiked plasma/brain calibration standards were identical (PMSF Stabilized Plasma and Brain used for Preparation of calibration standards): A 20 μL of study sample plasma/brain or spiked plasma/brain calibration standard was added to individual pre-labeled micro-centrifuge tubes followed by 200 μL of internal standard prepared in acetonitrile (Rosuvastatin, 50 ng/mL) was added except for blank, where 200 μL of acetonitrile was added. Samples were vortexed for 5 minutes. Samples were centrifuged for 10 minutes at a speed of 4000 rpm at 4° C. Following centrifugation, 200 μL of clear supernatant was transferred in 96 well plates and analyzed using LC-MS/MS.
Brain samples were diluted (1-part of tissue: 2-part of buffer) and homogenized. The homogenate was submitted for bioanalysis and the concentrations (ng/mL) received were corrected with dilution factor (3×) and the final reported concentrations were represented in ng/g.
The plasma and brain concentration-time data of 321 and 001 were used for the pharmacokinetic analysis.

[8] = male, C57BL/6, mouse, in vivo, 321, read-out: Brain concentrations (mean)
[9] = male, C57BL/6, mouse, in vivo, 321, read-out: Plasma concentrations (mean)

SMILES: COc1ccc([C@@]23CCC(OP(=O)(OC(C)C)OC(C)C)=C[C@@H]2N(C)CC3)cc1OC [Compound 321, [(3aS,7aS)-3a-(3,4-dimethoxyphenyl)-1-methyl-3,4,5,7a-tetrahydro-2H-indol-6-yl]diisopropyl phosphate]
- Prodrug (%) ([1]; 0 min): 100.0%
- Prodrug (%) ([1]; 10 min): >99%
- Prodrug (%) ([1]; 30 min): >99%
- Prodrug (%) ([1]; 60 min): 98.1%
- Prodrug (%) ([1]; 120 min): 94.5%
- Prodrug (%) ([1]; 240 min): 96.3%
- Prodrug (%) ([2]; 0 min): 100.0%
- Prodrug (%) ([2]; 10 min): 74.0%
- Prodrug (%) ([2]; 30 min): 69.8%
- Prodrug (%) ([2]; 60 min): 69.2%
- Prodrug (%) ([2]; 120 min): 68.4%
- Prodrug (%) ([2]; 240 min): 65.7%
- Conversion (%) ([3]; 1 min): 0%
- Conversion (%) ([3]; 5 min): 0%
- Conversion (%) ([3]; 30 min): 0%
- Conversion (%) ([3]; 1 h): 0%
- Conversion (%) ([3]; 4 h): 0%
- Conversion (%) ([3]; 24 h): 0%
- Conversion (%) ([4]; 1 min): 0%
- Conversion (%) ([4]; 5 min): 0%
- Conversion (%) ([4]; 30 min): 0%
- Conversion (%) ([4]; 1 h): 0%
- Conversion (%) ([4]; 4 h): 0%
- Conversion (%) ([4]; 24 h): 0%
- Prodrug (%) ([5]; 0 min): 100%
- Prodrug (%) ([5]; 15 min): >99%
- Prodrug (%) ([5]; 30 min): >99%
- Prodrug (%) ([5]; 60 min): >99%
- Prodrug (%) ([5]; 120 min): >99%
- Prodrug (%) ([5]; 240 min): 78.2%
- t1/2 [6]: 23 min
- Prodrug (%) ([7]; 0 min): 100%
- Prodrug (%) ([7]; 15 min): 77.3%
- Prodrug (%) ([7]; 30 min): 74.5%
- Prodrug (%) ([7]; 60 min): 58.4%
- Prodrug (%) ([7]; 120 min): 43.1%
- Prodrug (%) ([7]; 240 min): 31.7%
- Brain-Kp (in vivo; 321): 0.28
- brain concentrations quantifiable up to (in vivo; 321): ≤ 0.5 h
- plasma concentrations quantifiable up to (in vivo; 321): up to 2 h
- T1/2 (in vivo; 321 in Brain): 6.6 min
- Vss (in vivo; 321 in Brain): 10.34 L/kg
- CL (in vivo; 321 in Brain, marked NR (not reportable)): NR (1154.07) mL/min/kg
- AUClast (in vivo; 321 in Plasma): 97.14 ng·h/mL
- C0 (back extrapolated concentration) (in vivo; 321 in Plasma): 503.64 ng/mL
- CL (in vivo; 321 in Plasma): 340.73 mL/min/kg
- T1/2 (in vivo; 321 in Plasma): 21.6 min
- Vss (in vivo; 321 in Plasma): 4.80 L/kg
- concentration at 0.08 h (in vivo; [8]): 99.6 ng/g
- concentration at 0.08 h (in vivo; [9]): 305 ng/mL
- concentration at 0.25 h (in vivo; [8]): 37.1 ng/g
- concentration at 0.25 h (in vivo; [9]): 105 ng/mL
- concentration at 0.5 h (in vivo; [8]): 7.89 ng/g
- concentration at 0.5 h (in vivo; [9]): 26.2 ng/mL
- concentration at 1 h (in vivo; male, C57BL/6, mouse, in vivo, 321, 1 h, read-out: Plasma concentrations (mean)): 8.57 ng/mL
- concentration at 2 h (in vivo; male, C57BL/6, mouse, in vivo, 321, 2 h, average of two values, read-out: Plasma concentrations (mean)): 1.38 ng/mL
